# Values quoted from earlier work, collected in patent US20210360917A1, “CUTICLE SUPPLEMENT FOR PLANT PRODUCTION” (OREGON STATE UNIVERSITY, priority 2018, published 2021).
# Test system: spotted wing Drosophila
# Conditions: chemical alternative, source not given
smiles,measurement,value
CCOC(=O)CC(SP(=S)(OC)OC)C(=O)OCC (stereo not shown) [malathion],reduction of egg laying,about 50%
